What follows are molecules tested against α4β7 integrin (Homo sapiens (Human), UniProt P13612+P26010) (assay: α4β7 Integrin Cell Capture Assay). Conditions: RPMI8866 cells captured on MadCAM-1 extracellular domain-coated plate.
Assay type: cell-based

α4β7 integrin, sequence (P13612 34-1032): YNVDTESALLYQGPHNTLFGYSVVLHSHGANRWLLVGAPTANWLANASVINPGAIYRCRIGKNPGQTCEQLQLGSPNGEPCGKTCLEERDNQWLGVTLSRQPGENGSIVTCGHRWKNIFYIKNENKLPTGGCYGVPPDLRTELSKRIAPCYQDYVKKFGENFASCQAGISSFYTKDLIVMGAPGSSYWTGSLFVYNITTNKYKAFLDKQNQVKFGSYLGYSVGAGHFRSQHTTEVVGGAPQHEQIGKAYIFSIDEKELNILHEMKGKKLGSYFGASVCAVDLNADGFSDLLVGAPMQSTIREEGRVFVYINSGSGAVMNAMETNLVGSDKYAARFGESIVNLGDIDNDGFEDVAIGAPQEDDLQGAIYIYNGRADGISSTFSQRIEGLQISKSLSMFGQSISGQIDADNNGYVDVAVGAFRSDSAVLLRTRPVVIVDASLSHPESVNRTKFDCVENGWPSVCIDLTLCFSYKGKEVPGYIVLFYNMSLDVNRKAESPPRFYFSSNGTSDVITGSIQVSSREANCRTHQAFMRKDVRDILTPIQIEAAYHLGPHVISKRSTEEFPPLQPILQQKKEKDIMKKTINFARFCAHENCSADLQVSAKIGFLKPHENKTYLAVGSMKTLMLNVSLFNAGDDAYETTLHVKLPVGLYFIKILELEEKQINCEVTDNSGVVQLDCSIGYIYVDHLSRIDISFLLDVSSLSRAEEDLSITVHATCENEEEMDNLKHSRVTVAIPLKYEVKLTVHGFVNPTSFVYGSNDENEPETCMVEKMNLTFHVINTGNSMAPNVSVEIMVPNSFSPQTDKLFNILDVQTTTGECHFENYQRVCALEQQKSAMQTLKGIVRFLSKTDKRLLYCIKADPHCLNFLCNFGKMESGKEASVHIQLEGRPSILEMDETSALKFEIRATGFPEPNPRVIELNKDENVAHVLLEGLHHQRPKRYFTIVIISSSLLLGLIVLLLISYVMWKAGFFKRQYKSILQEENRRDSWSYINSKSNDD
α4β7 integrin, sequence (P26010 20-798): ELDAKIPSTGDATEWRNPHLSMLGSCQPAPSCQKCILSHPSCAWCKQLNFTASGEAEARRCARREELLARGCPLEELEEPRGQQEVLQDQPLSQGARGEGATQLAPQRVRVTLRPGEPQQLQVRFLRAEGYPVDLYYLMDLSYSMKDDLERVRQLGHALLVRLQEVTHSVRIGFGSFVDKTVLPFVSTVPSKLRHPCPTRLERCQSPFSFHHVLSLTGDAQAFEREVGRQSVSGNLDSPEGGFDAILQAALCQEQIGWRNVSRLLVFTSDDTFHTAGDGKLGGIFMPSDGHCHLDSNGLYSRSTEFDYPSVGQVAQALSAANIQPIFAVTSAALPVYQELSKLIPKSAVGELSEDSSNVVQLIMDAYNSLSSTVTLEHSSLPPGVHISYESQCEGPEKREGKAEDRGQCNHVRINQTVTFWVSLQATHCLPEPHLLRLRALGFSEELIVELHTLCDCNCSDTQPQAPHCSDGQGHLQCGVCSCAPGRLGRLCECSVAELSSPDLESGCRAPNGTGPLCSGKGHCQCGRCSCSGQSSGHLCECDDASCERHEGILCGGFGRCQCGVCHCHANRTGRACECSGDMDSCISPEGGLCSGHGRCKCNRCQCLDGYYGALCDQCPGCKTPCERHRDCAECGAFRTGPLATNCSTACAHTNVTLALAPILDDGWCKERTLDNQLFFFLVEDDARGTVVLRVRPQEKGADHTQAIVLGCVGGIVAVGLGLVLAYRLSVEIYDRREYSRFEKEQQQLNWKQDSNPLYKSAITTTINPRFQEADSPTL

`Cc1cc(N2CCOC[C@@H]2C(F)(F)F)cc(F)c1C(=O)N[C@@H](Cc1ccc(-n2c(=O)c3cncnc3n(C)c2=O)c2ncccc12)C(=O)O` [Example 406, (S)-2-(2-fluoro-6-methyl-4-((R)-3-(trifluoromethyl)morpholino)benzamido)-3-(8-(1-methyl-2,4-dioxo-1,4-dihydropyrimido[4,5-d]pyrimidin-3(2H)-yl)quinolin-5-yl)propanoic acid] and `Cc1cc(N2CCOC[C@@H]2C(F)(F)F)cc(F)c1C(=O)N[C@@H](Cc1ccc(-n2c(=O)c3cccnc3n(C)c2=O)c2ncccc12)C(=O)O` [Example 432] are within 1.5-fold of each other in EC50: 0.08 nM for the first, 0.11 nM for the second.

First: Cc1cc(N2CCOC[C@H]2C(F)(F)F)cc(F)c1C(=O)N[C@@H](Cc1ccc(-n2c(=O)c3ccncc3n(C)c2=O)c2ncccc12)C(=O)O [Example 409]
Second: Cc1cc(N2CCOC[C@@H]2C(F)(F)F)cc(F)c1C(=O)N[C@@H](Cc1ccc(-n2c(=O)c3cnccc3n(C)c2=O)c2ncccc12)C(=O)O [Example 434]
The EC50 of the first is 3.9-fold higher: 0.401 nM for the first, 0.103 nM for the second.

Compared with `Cc1nc2c(s1)c(=O)n(-c1ccc(C[C@H](NC(=O)c3c(C)cc(N4CCOC[C@@H]4C(F)(F)F)cc3F)C(=O)O)c3cccnc13)c(=O)n2C` [Example 410], `Cc1cc(N2CCOC[C@@H]2C(F)(F)F)cc(F)c1C(=O)N[C@@H](Cc1ccc(-n2c(=O)c3c(cnn3C)n(C)c2=O)c2ncccc12)C(=O)O` [Example 413] is 9.8-fold higher in EC50: 0.054 nM for the first, 0.529 nM for the second. The first is the more potent here.

Compared with `Cc1cc(N2CCOC[C@@H]2C(F)(F)F)cc(F)c1C(=O)N[C@@H](Cc1ccc(-n2c(=O)c3c(n(C)c2=O)COCC3)c2ncccc12)C(=O)O` [Example 411], `Cc1cc(N2CCOC[C@@H]2C(F)(F)F)cc(F)c1C(=O)N[C@@H](Cc1ccc(-n2c(=O)c3c(n(C)c2=O)CCOC3)c2ncccc12)C(=O)O` [Example 412] is 1.5-fold higher in EC50: 0.06 nM for the first, 0.091 nM for the second.

First: Cn1c(=O)n(-c2ccc(C[C@H](NC(=O)c3c(F)cc(N4CCOC[C@@H]4C(F)(F)F)cc3Cl)C(=O)O)c3cccnc23)c(=O)c2ccncc21 [Example 414]
Second: CCn1c(=O)n(-c2ccc(C[C@H](NC(=O)c3c(C)cc(N4CCOC[C@@H]4C(F)(F)F)cc3F)C(=O)O)c3cccnc23)c(=O)c2ccncc21 [Example 417]
The EC50 of the first is 2.4-fold lower: 0.048 nM for the first, 0.117 nM for the second. The first is the more potent here.

First: COc1cnc2c(=O)n(-c3ccc(C[C@H](NC(=O)c4c(C)cc(N5CCOC[C@@H]5C(F)(F)F)cc4F)C(=O)O)c4cccnc34)c(=O)n(C)c2c1 [Example 415]
Second: COc1cc2c(=O)n(-c3ccc(C[C@H](NC(=O)c4c(C)cc(N5CCOC[C@@H]5C(F)(F)F)cc4F)C(=O)O)c4cccnc34)c(=O)n(C)c2cn1 [Example 429]
The EC50 of the first is 1.8-fold lower: 0.091 nM for the first, 0.162 nM for the second.

`Cc1cc(N2CCOC[C@@H]2C(F)(F)F)cc(F)c1C(=O)N[C@@H](Cc1ccc(-n2c(=O)c3cc(N(C)C)ncc3n(C)c2=O)c2ncccc12)C(=O)O` [Example 416] and `Cc1cc2c(=O)n(-c3ccc(C[C@H](NC(=O)c4c(C)cc(N5CCOC[C@@H]5C(F)(F)F)cc4F)C(=O)O)c4cccnc34)c(=O)n(C)c2cn1` [Example 425] are within 1.5-fold of each other in EC50: 0.126 nM for the first, 0.185 nM for the second.

`Cc1cc(N2CCOC[C@@H]2C(F)(F)F)cc(F)c1C(=O)N[C@@H](Cc1ccc(-n2c(=O)c3cc(F)c(-n4ccnc4)cc3n(C)c2=O)c2ncccc12)C(=O)O` [Example 418] and `Cc1cc(N2CCOC[C@@H]2C(F)(F)F)cc(F)c1C(=O)N[C@@H](Cc1ccc(-n2c(=O)c3cc(F)ncc3n(C)c2=O)c2ncccc12)C(=O)O` [Example 420] are within 1.5-fold of each other in EC50: 0.104 nM for the first, 0.116 nM for the second.

Compared with `Cc1cc(-c2nccn2CC(F)(F)F)cc(F)c1C(=O)N[C@@H](Cc1ccc(-n2c(=O)c3ccncc3n(C)c2=O)c2ncccc12)C(=O)O` [Example 419], `CC[C@@H](Nc1cc(C)c(C(=O)N[C@@H](Cc2ccc(-n3c(=O)c4ccncc4n(C)c3=O)c3ncccc23)C(=O)O)c(F)c1)C(F)(F)F` [Example 439] is 7.5-fold lower in EC50: 0.369 nM for the first, 0.049 nM for the second.

First: Cc1cc(N2CCOC[C@@H]2C(F)(F)F)cc(F)c1C(=O)N[C@@H](Cc1ccc(-n2c(=O)[nH]c3cnccc3c2=O)c2ncccc12)C(=O)O [Example 421]
Second: Cc1cc(N2CCOC[C@@H]2C(F)(F)F)cc(F)c1C(=O)N[C@@H](Cc1ccc(-n2c(=O)c3ccc(F)cc3n(C)c2=O)c2ncccc12)C(=O)O [Example 431]
The EC50 of the first is 2-fold higher: 0.191 nM for the first, 0.094 nM for the second. The second is the more potent here.

Going from `Cn1c(=O)n(-c2ccc(C[C@H](NC(=O)c3c(F)cc(N4CCOC[C@@H]4C(F)(F)F)cc3F)C(=O)O)c3cccnc23)c(=O)c2cc(F)c(F)cc21` [Example 422] to `Cn1c(=O)n(-c2ccc(C[C@H](NC(=O)c3c(F)cc(N4CCOC[C@@H]4C(F)(F)F)cc3F)C(=O)O)c3cccnc23)c(=O)c2ccc(F)cc21` [Example 423], the EC50 falls from 0.231 nM to 0.08 nM (2.9-fold).

Compared with `Cc1cc(N2CCOC[C@@H]2C(F)(F)F)cc(F)c1C(=O)N[C@@H](Cc1ccc(-n2c(=O)c3ccncc3n(C)c2=O)c2ncc(F)cc12)C(=O)O` [Example 426], `Cc1cc(N2CCOC[C@@H]2C(F)(F)F)cc(F)c1C(=O)N[C@@H](Cc1ccc(-n2c(=O)c3cnccc3n(C)c2=O)c2ncc(F)cc12)C(=O)O` [Example 427] is 3.7-fold higher in EC50: 0.096 nM for the first, 0.355 nM for the second. The first is the more potent here.

First: COc1cc2c(=O)n(-c3ccc(C[C@H](NC(=O)c4c(F)cc(N5CCOC[C@@H]5C(F)(F)F)cc4F)C(=O)O)c4cccnc34)c(=O)n(C)c2cn1 [Example 428]
Second: Cn1c(=O)n(-c2ccc(C[C@H](NC(=O)c3c(F)cc(N4CCOC[C@@H]4C(F)(F)F)cc3F)C(=O)O)c3cc(F)cnc23)c(=O)c2cnccc21 [Example 430]
The EC50 of the first is 2.6-fold lower: 0.18 nM for the first, 0.469 nM for the second. The first is the more potent here.

First: Cc1cc(N2CCOC[C@@H]2C(F)(F)F)cc(F)c1C(=O)N[C@@H](Cc1cc(F)c(-n2c(=O)c3ccncc3n(C)c2=O)c2ncccc12)C(=O)O [Example 433]
Second: Cc1cc(N2CCOC[C@@H]2C(F)(F)F)cc(F)c1C(=O)N[C@@H](Cc1ccc(-c2cc(C)c(C)n(C)c2=O)c2ncccc12)C(=O)O [Example 455]
The EC50 of the first is 2.8-fold lower: 0.076 nM for the first, 0.211 nM for the second.

Going from `Cc1cc(-c2nccn2CC(F)(F)F)cc(F)c1C(=O)N[C@@H](Cc1ccc(-c2c(C(F)(F)F)cc(C)n(C)c2=O)c2ncccc12)C(=O)O` [Example 435] to `[2H]C([2H])([2H])c1cc(N2CCOC[C@@H]2C(F)(F)F)cc(F)c1C(=O)N[C@@H](Cc1ccc(-c2c(C(F)(F)F)cc(C)n(C)c2=O)c2ncccc12)C(=O)O` [Example 462], the EC50 falls from 0.524 nM to 0.102 nM (5.1-fold).

`CN1CCc2c(cc(-c3ccc(C[C@H](NC(=O)c4c(F)cc(N5CCOC[C@@H]5C(F)(F)F)cc4F)C(=O)O)c4cccnc34)c(=O)n2C)C1` [Example 437] and `Cn1c2c(cc(-c3ccc(C[C@H](NC(=O)c4c(F)cc(N5CCOC[C@@H]5C(F)(F)F)cc4F)C(=O)O)c4cccnc34)c1=O)CNCC2` [Example 438] are within 1.5-fold of each other in EC50: 0.261 nM for the first, 0.291 nM for the second.

First: Cc1nc(C)n(C)c(=O)c1-c1ccc(C[C@H](NC(=O)c2c(F)cc(N3CCOC[C@@H]3C(F)(F)F)cc2F)C(=O)O)c2cccnc12 [Example 440]
Second: Cc1cc(N2CCOC[C@@H]2C(F)(F)F)cc(F)c1C(=O)N[C@@H](Cc1ccc(-c2c(C)nc(C)n(C)c2=O)c2ncccc12)C(=O)O [Example 460]
The EC50 of the first is 1.7-fold higher: 0.25 nM for the first, 0.15 nM for the second.

First: Cc1cc(C(F)(F)F)c(-c2ccc(C[C@H](NC(=O)c3c(F)cc(N4CCCOCC4)cc3F)C(=O)O)c3cccnc23)c(=O)n1C [Example 441]
Second: Cc1cc(C(F)(F)F)c(-c2ccc(C[C@H](NC(=O)c3c(F)cc(N4CCOC5(COC5)C4)cc3F)C(=O)O)c3cccnc23)c(=O)n1C [Example 459]
The EC50 of the first is 5-fold lower: 0.412 nM for the first, 2.07 nM for the second.

`CC[C@@H](Nc1cc(C)c(C(=O)N[C@@H](Cc2ccc(-c3c(C)nc(C)n(C)c3=O)c3ncccc23)C(=O)O)c(F)c1)C(F)(F)F` [Example 442] and `CC[C@@H](Nc1cc(F)c(C(=O)N[C@@H](Cc2ccc(-c3nc(C)c(C)n(C)c3=O)c3ncccc23)C(=O)O)c(F)c1F)C(F)(F)F` [Example 456] are within 1.5-fold of each other in EC50: 0.227 nM for the first, 0.248 nM for the second.

Going from `Cc1cc(N2CCOC[C@@H]2C(F)(F)F)cc(F)c1C(=O)N[C@@H](Cc1ccc(-c2nc(C)c(C)c(C)n2)c2ncccc12)C(=O)O` [Example 443] to `Cc1cc(N2CCOC[C@@H]2C(F)(F)F)cc(F)c1C(=O)N[C@@H](Cc1ccc(-c2c(C)c(Cl)cn(C)c2=O)c2ncccc12)C(=O)O` [Example 451], the EC50 falls from 0.714 nM to 0.208 nM (3.4-fold). The second is the more potent here.

Going from `Cc1cc(N2CCOC[C@@H]2C(F)(F)F)cc(F)c1C(=O)N[C@@H](Cc1ccc(-c2ccc(C)n(C)c2=O)c2ncccc12)C(=O)O` [Example 444] to `Cc1cc(N2CCOC[C@@H]2C(F)(F)F)cc(F)c1C(=O)N[C@@H](Cc1ccc(-c2c(Cl)cc(C)n(C)c2=O)c2ncccc12)C(=O)O` [Example 449], the EC50 falls from 0.161 nM to 0.092 nM (1.8-fold).

First: CC[C@@]1(C)CN(c2cc(F)c(C(=O)N[C@@H](Cc3ccc(-c4c(C(F)(F)F)cc(C)n(C)c4=O)c4ncccc34)C(=O)O)c(F)c2)CCO1 [Example 445]
Second: Cc1cc(C(F)(F)F)c(-c2ccc(C[C@H](NC(=O)c3c(F)cc(N4CCO[C@@H](C(F)(F)F)C4)cc3F)C(=O)O)c3cccnc23)c(=O)n1C [Example 447]
The EC50 of the first is 3.6-fold higher: 0.984 nM for the first, 0.271 nM for the second.

Compared with `Cc1cc(N2CCOC[C@@H]2C(F)(F)F)cc(C)c1C(=O)N[C@@H](Cc1ccc(-c2c(C(F)(F)F)cc(C)n(C)c2=O)c2ncccc12)C(=O)O` [Example 446], `Cc1cc(C(F)(F)F)c(-c2ccc(C[C@H](NC(=O)c3c(F)cc(N4CCOC[C@@H]4C(F)(F)F)cc3C3CC3)C(=O)O)c3cccnc23)c(=O)n1C` [Example 463] is 1.6-fold lower in EC50: 0.318 nM for the first, 0.205 nM for the second.

`Cc1cc(N2CCOC[C@@H]2C(F)(F)F)cc(F)c1C(=O)N[C@@H](Cc1ccc(-c2cc(C(F)(F)F)c(C)n(C)c2=O)c2ncccc12)C(=O)O` [Example 448] and `Cc1cc(N2CCOC[C@@H]2C(F)(F)F)cc(F)c1C(=O)N[C@@H](Cc1ccc(-c2c(C)c(C(F)(F)F)cn(C)c2=O)c2ncccc12)C(=O)O` [Example 457] are within 1.5-fold of each other in EC50: 0.307 nM for the first, 0.238 nM for the second.

Going from `Cc1cc(N2CCOC[C@@H]2C(F)(F)F)cc(F)c1C(=O)N[C@@H](Cc1ccc(-c2cc(N(C)C)c(C)n(C)c2=O)c2ncccc12)C(=O)O` [Example 450] to `Cc1cc(N2CCOC[C@@H]2C(F)(F)F)cc(F)c1C(=O)N[C@@H](Cc1ccc(-c2c(C(F)(F)F)nc(C)n(C)c2=O)c2ncccc12)C(=O)O` [Example 458], the EC50 falls from 1.02 nM to 0.09 nM (11-fold).

First: Cc1cc(N2CCOC[C@@H]2C(F)(F)F)cc(F)c1C(=O)N[C@@H](Cc1ccc(-c2nc(C)c(C)n(C)c2=O)c2ncc(F)cc12)C(=O)O [Example 452]
Second: Cc1cc(N2CCCC[C@@H]2C(F)(F)F)cc(F)c1C(=O)N[C@@H](Cc1ccc(-c2nc(C)c(C)n(C)c2=O)c2ncccc12)C(=O)O [Example 453]
The EC50 of the first is 2.9-fold lower: 0.232 nM for the first, 0.677 nM for the second. The first is the more potent here.

— patent US11116760B2 (Gilead Sciences, Inc., priority 2018, dated 2021)
